According to the NIST ThermoML archive (doi:10.1016/j.fluid.2019.06.004):
Numbers after ± are expanded uncertainties.

How the values were obtained:
[1] = Molar enthalpy of transition or fusion; conditions: DSC

## NC(=O)c1cnccn1 [pyrazinecarboxamide]
Crystal
  Normal melting temperature: 188.96 ± 2.2 °C
Crystal 2, DSC
  Triple point temperature: 421.11 ± 1.2 K
[1]; Crystal 2
  Molar enthalpy of transition or fusion: 0.363 ± 0.043 kcal/mol
[1]; Crystal
  Molar enthalpy of transition or fusion: 6.09 ± 0.502 kcal/mol
